Assay results taken from patent US9663473B2 (Actelion Pharmaceuticals Ltd, priority 2013, dated 2017).

These compounds were tested against T1, recombinant human ALX receptor (Homo sapiens, UniProt P25090) (assay: Intracellular calcium measurements (FLIPR), ALX receptor agonistic activity). Details: HEK293-hALXR-Gα16 cells, Fluo-4 calcium signal, normalized to WKYMVm 10 nM.
T1 construct: expressed in transfected cells; host or cells: HEK293 (HEK293-hALXR-Gα16)
T1 sequence (P25090 1-351): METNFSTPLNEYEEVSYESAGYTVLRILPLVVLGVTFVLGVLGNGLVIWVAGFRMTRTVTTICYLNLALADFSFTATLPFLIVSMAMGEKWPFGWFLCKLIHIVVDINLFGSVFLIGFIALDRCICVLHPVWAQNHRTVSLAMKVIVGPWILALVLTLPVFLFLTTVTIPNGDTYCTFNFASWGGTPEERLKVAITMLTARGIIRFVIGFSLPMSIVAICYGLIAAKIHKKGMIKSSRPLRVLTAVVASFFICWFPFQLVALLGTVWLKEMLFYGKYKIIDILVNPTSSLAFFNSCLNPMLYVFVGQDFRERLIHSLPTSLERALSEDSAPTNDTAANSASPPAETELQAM
Format: cell-based
How it was run: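 HEK293 cells co-expressing human ALX receptor and Gα16 were loaded with 1 μM Fluo-4 AM for 60 min at 37° C., then exposed to serially diluted compounds on FLIPR Tetra. Peak fluorescence above baseline (ex 488/em 540 nm) was normalized to 10 nM WKYMVm as high control.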

| Structure (SMILES) | EC50 [nM] |
| --- | --- |
| COc1ccc(C[C@@H](NC(=O)NC2CN3CCC2CC3)c2nc3ccccc3[nH]2)cc1 (stereo partly drawn) [Example 89, 1-((R)-1-(1H-Benzo[d]imidazol-2-yl)-2-(4-methoxyphenyl)ethyl)-3-(quinuclidin-3-yl)urea] | 15 |
| COc1ccc(C[C@@H](NC(=O)N2CCCC2)c2nc3ccccc3[nH]2)cc1 [Example 91, (R)—N-(1-(1H-Benzo[d]imidazol-2-yl)-2-(4-methoxyphenyl)ethyl)pyrrolidine-1-carboxamide] | 561 |
| COc1ccc(C[C@@H](NC(=O)NCCO)c2nc3ccccc3[nH]2)cc1 [Example 94, (R)-1-(1-(1H-Benzo[d]imidazol-2-yl)-2-(4-methoxyphenyl)ethyl)-3-(2-hydroxyethyl)urea] | 570 |
| COc1ccc(C[C@@H](NC(=O)NCCCO)c2nc3ccccc3[nH]2)cc1 [Example 95, (R)-1-(1-(1H-Benzo[d]imidazol-2-yl)-2-(4-methoxyphenyl)ethyl)-3-(3-hydroxypropyl)urea] | 195 |
| COc1ccc(C[C@@H](NC(=O)NCCCCO)c2nc3ccccc3[nH]2)cc1 [Example 96, (R)-1-(1-(1H-Benzo[d]imidazol-2-yl)-2-(4-methoxyphenyl)ethyl)-3-(4-hydroxybutyl)urea] | 152 |
| COc1ccc(C[C@@H](NC(=O)NCC2CCCCC2)c2nc3ccccc3[nH]2)cc1 [Example 98, (R)-1-(1-(1H-Benzo[d]imidazol-2-yl)-2-(4-methoxyphenyl)ethyl)-3-(cyclohexylmethyl)urea] | 432 |
| COc1ccc(C[C@@H](NC(=O)NC2CCN(Cc3ccccc3)C2)c2nc3ccccc3[nH]2)cc1 (stereo partly drawn) [Example 102, 1-((R)-1-(1H-Benzo[d]imidazol-2-yl)-2-(4-methoxyphenyl)ethyl)-3-(1-benzylpyrrolidin-3-yl)urea] | 376 |
| COc1ccc(C[C@@H](NC(=O)Nc2ccc(OC)cc2)c2nc3ccccc3[nH]2)cc1 [Example 104, (R)-1-(1-(1H-Benzo[d]imidazol-2-yl)-2-(4-methoxyphenyl)ethyl)-3-(4-methoxyphenyl)urea] | 257 |
| COc1ccc(C[C@@H](NC(=O)NC2(C)COC2)c2nc3ccccc3[nH]2)cc1 [Example 109, (R)-1-(1-(1H-Benzo[d]imidazol-2-yl)-2-(4-methoxyphenyl)ethyl)-3-(3-methyloxetan-3-yl)urea] | 634 |
| COc1ccc(C[C@@H](NC(=O)NCCC(N)=O)c2nc3ccccc3[nH]2)cc1 [Example 110, (R)-3-(3-(1-(1H-Benzo[d]imidazol-2-yl)-2-(4-methoxyphenyl)ethyl)ureido)propanamide] | 746 |
| COc1ccc(C[C@@H](NC(=O)N[C@H]2CCC[C@H]2O)c2nc3ccccc3[nH]2)cc1 [Example 114, 1-((R)-1-(1H-Benzo[d]imidazol-2-yl)-2-(4-methoxyphenyl)ethyl)-3-((1S,2R)-2-hydroxycyclopentyl)urea] | 190 |
| COc1ccc(C[C@@H](NC(=O)N[C@H]2CCC[C@@H]2O)c2nc3ccccc3[nH]2)cc1 [Example 115, 1-((R)-1-(1H-Benzo[d]imidazol-2-yl)-2-(4-methoxyphenyl)ethyl)-3-((1S,2S)-2-hydroxycyclopentyl)urea] | 143 |
| COc1ccc(C[C@@H](NC(=O)N[C@H]2CCN(C(=O)OC(C)(C)C)C2)c2nc3ccccc3[nH]2)cc1 [Example 119, (S)-tert-Butyl 3-(3-((R)-1-(1H-benzo[d]imidazol-2-yl)-2-(4-methoxyphenyl)ethyl)ureido)pyrrolidine-1-carboxylate] | 539 |
| COc1ccc(C[C@@H](NC(=O)N2CCC3C2CCN3C(=O)OC(C)(C)C)c2nc3ccccc3[nH]2)cc1 (stereo partly drawn) [Example 121, tert-Butyl 4-(((R)-1-(1H-benzo[d]imidazol-2-yl)-2-(4-methoxyphenyl)ethyl)carbamoyl)hexahydropyrrolo[3,2-b]pyrrole-1 (2H)-carboxylate] | 704 |

Other lines, results leading:

| EC50 [nM] | Structure (SMILES) |
| --- | --- |
| 14 | COc1ccc(C[C@@H](NC(=O)NC2CC(C)(C)NC(C)(C)C2)c2nc3ccccc3[nH]2)cc1 [Example 87, (R)-1-(1-(1H-Benzo[d]imidazol-2-yl)-2-(4-methoxyphenyl)ethyl)-3-(2,2,6,6-tetramethylpiperidin-4-yl)urea] |
| 101 | COc1ccc(C[C@@H](NC(=O)NC2CCN(Cc3ccccc3)CC2)c2nc3ccccc3[nH]2)cc1 [Example 88, (R)-1-(1-(1H-Benzo[d]imidazol-2-yl)-2-(4-methoxyphenyl)ethyl)-3-(1-benzylpiperidin-4-yl)urea] |
| 23 | COc1ccc(C[C@@H](NC(=O)NC2CCN(C3CCCCC3)CC2)c2nc3ccccc3[nH]2)cc1 [Example 90, (R)-1-(1-(1H-Benzo[d]imidazol-2-yl)-2-(4-methoxyphenyl)ethyl)-3-(1-cyclohexylpiperidin-4-yl)urea] |
| 48 | COc1ccc(C[C@@H](NC(=O)NCC2CCCC2)c2nc3ccccc3[nH]2)cc1 [Example 92, (R)-1-(1-(1H-Benzo[d]imidazol-2-yl)-2-(4-methoxyphenyl)ethyl)-3-(cyclopentylmethyl)urea] |
| 16 | COc1ccc(C[C@@H](NC(=O)NC2CCN(C(=O)OC(C)(C)C)C2)c2nc3ccccc3[nH]2)cc1 (stereo partly drawn) [Example 93, tert-butyl 3-(3-((R)-1-(1H-Benzo[d]imidazol-2-yl)-2-(4-methoxyphenyl)ethyl)ureido)pyrrolidine-1-carboxylate] |
| 124 | CCC(CC)NC(=O)N[C@H](Cc1ccc(OC)cc1)c1nc2ccccc2[nH]1 [Example 97, (R)-1-(1-(1H-Benzo[d]imidazol-2-yl)-2-(4-methoxyphenyl)ethyl)-3-(pentan-3-yl)urea] |
| 57 | COc1ccc(C[C@@H](NC(=O)NC2CCCCCC2)c2nc3ccccc3[nH]2)cc1 [Example 99, (R)-1-(1-(1H-Benzo[d]imidazol-2-yl)-2-(4-methoxyphenyl)ethyl)-3-cycloheptylurea] |
| 87 | COc1ccc(C[C@@H](NC(=O)NC2CCNC2)c2nc3ccccc3[nH]2)cc1 (stereo partly drawn) [Example 100, 1-((R)-1-(1H-Benzo[d]imidazol-2-yl)-2-(4-methoxyphenyl)ethyl)-3-(pyrrolidin-3-yl)urea] |
| 113 | COc1ccc(C[C@@H](NC(=O)NC2CCN(C(C)C)CC2)c2nc3ccccc3[nH]2)cc1 [Example 101, (R)-1-(1-(1H-Benzo[d]imidazol-2-yl)-2-(4-methoxyphenyl)ethyl)-3-(1-isopropylpiperidin-4-yl)urea] |
| 14 | COc1ccc(C[C@@H](NC(=O)NC2CCN(CCc3ccccc3)CC2)c2nc3ccccc3[nH]2)cc1 [Example 105, (R)-1-(1-(1H-Benzo[d]imidazol-2-yl)-2-(4-methoxyphenyl)ethyl)-3-(1-phenethylpiperidin-4-yl)urea] |
| 6 | COc1ccc(CC(NC(=O)NC2CCC(CCO)CC2)c2nc3ccccc3[nH]2)cc1 (stereo not drawn) [Example 107, 1-(1-(1H-Benzo[d]imidazol-2-yl)-2-(4-methoxyphenyl)ethyl)-3-(4-(2-hydroxyethyl)cyclohexyl)urea] |
| 52 | COc1ccc(C[C@@H](NC(=O)NC2CCNCC2)c2nc3ccccc3[nH]2)cc1 [Example 108, (R)-1-(1-(1H-Benzo[d]imidazol-2-yl)-2-(4-methoxyphenyl)ethyl)-3-(piperidin-4-yl)urea] |
| 142 | COc1ccc(C[C@@H](NC(=O)N(CCO)C2CCCCC2)c2nc3ccccc3[nH]2)cc1 [Example 111, (R)-3-(1-(1H-Benzo[d]imidazol-2-yl)-2-(4-methoxyphenyl)ethyl)-1-cyclohexyl-1-(2-hydroxyethyl)urea] |
| 109 | COc1ccc(C[C@@H](NC(=O)N2CC3CCC2CN3C(=O)OC(C)(C)C)c2nc3ccccc3[nH]2)cc1 (stereo partly drawn) [Example 112, tert-Butyl 5-(((R)-1-(1H-benzo[d]imidazol-2-yl)-2-(4-methoxyphenyl)ethyl)carbamoyl)-2,5-diazabicyclo[2.2.2]octane-2-carboxylate] |
| 20 | COc1ccc(C[C@@H](NC(=O)N[C@@H]2CCC[C@H]2O)c2nc3ccccc3[nH]2)cc1 [Example 113, 1-((R)-1-(1H-Benzo[d]imidazol-2-yl)-2-(4-methoxyphenyl)ethyl)-3-((1R,2R)-2-hydroxycyclopentyl)urea] |
| 63 | COc1ccc(C[C@@H](NC(=O)NC2CC(C)(C)N(C)C(C)(C)C2)c2nc3ccccc3[nH]2)cc1 [Example 116, (R)-1-(1-(1H-Benzo[d]imidazol-2-yl)-2-(4-methoxyphenyl)ethyl)-3-(1,2,2,6,6-pentamethylpiperidin-4-yl)urea] |
| 62 | COc1ccc(C[C@@H](NC(=O)NC2CCCN(C)C2)c2nc3ccccc3[nH]2)cc1 (stereo partly drawn) [Example 117, 1-((R)-1-(1H-Benzo[d]imidazol-2-yl)-2-(4-methoxyphenyl)ethyl)-3-(1-methylpiperidin-3-yl)urea] |
| 25 | COc1ccc(C[C@@H](NC(=O)N[C@@H]2CCN(C(=O)OC(C)(C)C)C2)c2nc3ccccc3[nH]2)cc1 [Example 118, (R)-tert-Butyl 3-(3-((R)-1-(1H-benzo[d]imidazol-2-yl)-2-(4-methoxyphenyl)ethyl)ureido)pyrrolidine-1-carboxylate] |
| 57 | COc1ccc(C[C@@H](NC(=O)N2CCC3CN(C(=O)OC(C)(C)C)CC32)c2nc3ccccc3[nH]2)cc1 (stereo partly drawn) [Example 120, tert-Butyl 1-(((R)-1-(1H-benzo[d]imidazol-2-yl)-2-(4-methoxyphenyl)ethyl)carbamoyl)hexahydropyrrolo[3,4-b]pyrrole-5(1H)-carboxylate] |
